ChEMBL document CHEMBL4665682, “Fragment Linking Strategies for Structure-Based Drug Design” (J Med Chem, 2020)

Assays:
Acetylcholinesterase [1] = target: T1, Acetylcholinesterase (Mus musculus, UniProt P21836); assay: Binding affinity to mouse ACHE by fluorescence method
T1 sequence (P21836 whole entry): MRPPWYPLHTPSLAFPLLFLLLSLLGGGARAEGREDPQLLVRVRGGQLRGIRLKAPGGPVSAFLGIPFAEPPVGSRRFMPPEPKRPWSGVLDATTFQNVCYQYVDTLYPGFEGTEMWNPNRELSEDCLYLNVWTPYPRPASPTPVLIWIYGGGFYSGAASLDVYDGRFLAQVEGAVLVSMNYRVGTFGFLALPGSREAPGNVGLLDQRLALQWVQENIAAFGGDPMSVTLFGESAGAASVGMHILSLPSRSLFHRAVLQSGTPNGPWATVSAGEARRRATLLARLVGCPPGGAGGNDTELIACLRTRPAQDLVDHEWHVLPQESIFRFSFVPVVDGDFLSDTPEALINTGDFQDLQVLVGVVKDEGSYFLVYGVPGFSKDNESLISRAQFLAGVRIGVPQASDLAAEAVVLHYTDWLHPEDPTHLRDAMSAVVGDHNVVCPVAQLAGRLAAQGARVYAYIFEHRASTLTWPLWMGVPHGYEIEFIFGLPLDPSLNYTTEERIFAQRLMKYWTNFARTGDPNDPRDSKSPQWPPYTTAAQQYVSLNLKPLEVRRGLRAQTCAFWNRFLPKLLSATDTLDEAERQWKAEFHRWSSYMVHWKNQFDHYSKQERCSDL

Acetylcholinesterase [2] = target: T2, Acetylcholinesterase (Rattus norvegicus, UniProt P37136)
T2 sequence (P37136 whole entry): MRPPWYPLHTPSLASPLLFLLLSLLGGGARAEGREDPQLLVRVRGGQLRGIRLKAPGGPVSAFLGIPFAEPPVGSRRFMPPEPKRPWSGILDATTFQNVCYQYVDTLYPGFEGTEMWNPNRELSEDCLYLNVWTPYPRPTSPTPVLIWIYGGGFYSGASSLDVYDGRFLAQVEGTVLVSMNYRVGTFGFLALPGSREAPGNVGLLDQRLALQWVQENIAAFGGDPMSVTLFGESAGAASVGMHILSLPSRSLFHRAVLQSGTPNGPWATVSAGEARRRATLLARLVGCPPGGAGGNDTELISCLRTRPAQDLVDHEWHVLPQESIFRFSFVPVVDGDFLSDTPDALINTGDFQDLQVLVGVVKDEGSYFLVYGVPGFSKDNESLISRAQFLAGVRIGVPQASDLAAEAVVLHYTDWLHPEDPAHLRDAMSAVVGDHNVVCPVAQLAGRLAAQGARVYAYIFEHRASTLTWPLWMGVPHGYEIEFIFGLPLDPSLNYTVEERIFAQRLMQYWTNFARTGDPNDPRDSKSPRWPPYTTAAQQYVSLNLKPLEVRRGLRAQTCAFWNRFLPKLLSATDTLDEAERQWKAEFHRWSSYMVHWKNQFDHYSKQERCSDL
Description: Inhibition of rat brain Acetylcholinesterase using acetylthiocholine as substrate in presence of BChE inhibitor ethopropazine

Caspase-3 = target: T3, Caspase-3 (Homo sapiens, UniProt P42574); assay: Inhibition of caspase-3 (unknown origin) using Ac-DEVD-AMCA as substrate incubated for 5 mins by Dixon plot analysis
T3 sequence (P42574 whole entry): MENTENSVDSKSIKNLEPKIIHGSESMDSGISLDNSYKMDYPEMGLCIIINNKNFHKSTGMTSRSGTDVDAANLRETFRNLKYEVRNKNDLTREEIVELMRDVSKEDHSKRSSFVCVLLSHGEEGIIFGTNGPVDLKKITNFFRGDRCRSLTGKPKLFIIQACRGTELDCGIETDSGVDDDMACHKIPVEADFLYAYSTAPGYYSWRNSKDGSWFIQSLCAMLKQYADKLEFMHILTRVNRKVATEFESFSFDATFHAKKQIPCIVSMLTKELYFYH

[3] = Inhibition of Influenza B virus (B/Victoria/504/2000) Neuraminidase

## C#CCCCCCC[n+]1c(-c2ccccc2)c2cc(N)ccc2c2ccc(N)cc21
Acetylcholinesterase [1]
  Kd: 10000 µM

## c1ccc2c(NCCCCCCNc3c4c(nc5ccccc35)CCCC4)c3c(nc2c1)CCCC3
Acetylcholinesterase [2]
  IC50: 0.0004 µM

## CN(C)c1ccc(-c2nc3cc(N)ccc3o2)cc1
Caspase-3
  Ki: 120 µM

## CCC(CC)N[C@@H]1C=C(C(=O)O)C[C@H](N)[C@H]1NC(C)=O
[3]
  Ki: 0.085 µM
